Data as given in PMC12529164, “Design, Synthesis, Structure–Activity Relationships, and Preliminary Anticancer Properties of Menthol-Modified Coumarin Esters and 3,4-Dihydrocoumarin Derivatives” (ACS Omega, 2025).
Like-named read-outs stand apart in the source and are kept apart here.

What was measured:
HaCaT [1] = test: MTT cytotoxicity assay, normal cells; format: cell-based; settings: 72 h, human immortal keratinocytes (normal cells); for IC50: HaCaT
Method: (§1) The human primary (SW480) and metastatic (SW620) colon cancer, metastatic prostate cancer (PC3), breast adenocarcinoma (MDA-MB-231) and human immortal keratinocyte (HaCaT) cell lines were recruited from the American Type Culture Collection (ATCC). The cells were cultured in the recommended medium according to protocols (RPMI 1640 for PC3, MEM for SW480 and SW620, as well as DMEM for MDA-MB-231 and HaCaT cells) with addition of 10% FBS, penicillin (100 U/mL), and streptomycin (100 μg/mL) and cultured in 37 °C/5% CO2 in a humidified incubator. Then, the cells were passaged at a confluence of 80–90% by a treatment with 0.25% trypsin (Gibco Life Technologies) and used for studies.
(§2) They were added to 96-well plates with seeded normal and cancer cells (1 × 10^4 cells per well) and incubated for 72 h. MTT analysis was performed according to a previous study.

PC3 [2] = test: Annexin V-FITC/PI flow cytometry; format: cell-based, human; settings: PC3, compound at IC50, 72 h, mean
Method: (§3) The apoptotic and necrotic cells treated with derivatives 2b, 4a, 4b were detected using FITC Annexin V Apoptosis Detection Kit I (BD Biosciences Pharmingen). Briefly, cells (2 × 10^5 cells/well) were seeded in 6-well plates in supplemented medium. […] Then cells were harvested, washed, and labeled with Annexin V-FITC and propidium iodide (PI) according to the manufacturer’s protocol. The stained cells were analyzed by flow cytometry. The cells were identified as early apoptotic (Annexin V+/PI−) or late apoptotic/necrotic (Annexin V+/PI+).

HaCaT [3] = test: Annexin V-FITC/PI flow cytometry; format: cell-based, human; settings: compound at IC50, 72 h, mean
Method: as §3

MDA-MB-231 = test: MTT cytotoxicity assay; format: cell-based, human; settings: for IC50: MDA-MB-231, MTT, 72 h, human breast adenocarcinoma; for SI MDA-MB-231: SI = IC50 for normal cell line (HaCaT)/IC50 cancer cell line
Method: as §1, §2

SW480 = test: MTT cytotoxicity assay; format: cell-based, human; settings: for SI SW480: SI = IC50 for normal cell line (HaCaT)/IC50 cancer cell line; for IC50: SW480, MTT, 72 h, human primary colon cancer
Method: as §1, §2

PC3 [4] = test: MTT cytotoxicity assay; format: cell-based, human; settings: for IC50: PC-3, MTT, 72 h, human metastatic prostate cancer; for SI PC3: SI = IC50 for normal cell line (HaCaT)/IC50 cancer cell line
Method: as §1, §2

SW620 [5] = test: MTT cytotoxicity assay; format: cell-based, human; settings: for SI SW620: SI = IC50 for normal cell line (HaCaT)/IC50 cancer cell line; for IC50: SW-620, MTT, 72 h, human metastatic colon cancer
Method: as §1, §2

IL-6 in HaCaT cells = test: Interleukin-6 ELISA; format: cell-based, human; settings: compound at IC50, 72 h; for IL-6 concentration: ELISA
Method: (§4) The concentration of Interleukin-6 (IL-6) was measured in cell culture supernatant using Interleukin IL-6 High Sensitivity ELISA kit (Diaclon SAS, Besancon Cedex, France). Cells (1 × 10^5 cells/well) were seeded in 12-well plates with medium for 24 h. […] After this incubation, the supernatants were collected and 100 μL of supernatant samples, control solutions and blank were added to precoated ELISA plate with the preceding plotting of the standard curve. Then 50 μL of diluted biotinylated antihuman interleukin-6 antibody was added and incubated at room temperature for 3 h. Afterward, the plate was washed three times and 100 μL streptavidin-HRP solution was added to each well. After 30 min incubation, the plate was washed again three times and 100 μL of tetramethylbenzidine (TMB) solution was added to each well. The plate was incubated for 15 min in the dark. The reaction was stopped by adding 100 μL of H2SO4 solution. The absorbance was estimated using a spectrophotometer at 450 nm (Microplate Spectrophotometer Thermo Scientific Multiskan GO).

IL-6 in PC3 cells = test: Interleukin-6 ELISA; format: cell-based, human; settings: PC3, compound at IC50, 72 h
Method: as §4

PC3 [6] = test: Trypan blue assay; format: cell-based, human; settings: PC3, compound at IC50, 72 h
Method: (§5) The total cell count was assessed by trypan blue exclusion dye assay using automated cell counter (Countess Invitrogen). Untreated cells were used as the control. Each experiment was repeated 5 times.

HaCaT [7] = test: Trypan blue assay; format: cell-based, human; settings: compound at IC50, 72 h; for cell number: mean; for reduction of number of cells: vs control
Method: as §5

Trypan blue assay = format: cell-based, human; settings: human, HaCaT cells, compound at IC50, 72 h, mean
Method: as §5

[8] = system: tested cancer cell lines (SW480, SW620, PC3, MDA-MB-231); test: MTT assay, mean over tested cancer cell lines; format: cell-based; settings: Homo sapiens, mean of the four cancer cell lines
Method: They were added to 96-well plates with seeded normal and cancer cells (1 × 10^4 cells per well) and incubated for 72 h. MTT analysis was performed according to a previous study. […]

Danio rerio larvae = test: In vivo toxicity, maximum tolerated concentration; settings: zebrafish larvae, immersion from 96 hpf for 18 h (120 hpf), 5-150 μM tested
Method: Zebrafish (Danio rerio, strain AB) was maintained at the Experimental Medicine Center, Medical University of Lublin, Poland. Embryos and larvae up to 120 h postfertilization (hpf) were kept under generally accepted environmental conditions, i.e., in incubators at 28.5 °C, with 14/10 h light/dark cycles. The embryos of the Zebrafish were harvested after the natural reproduction process.
Three compounds showing low IC50 values determined on cancer lines in in vitro tests (2b, 4a) and compound 1a characterized by low cytotoxicity were used for in vivo tests. We also conducted research for coumarin. These compounds were dissolved in dimethyl sulfoxide (DMSO) (Sigma-Aldrich, St. Louis, MO, USA) and diluted in the zebrafish medium (pH 7.1–7.3; 5.0 mM NaCl, 0.17 mM KCl, 0.33 mM CaCl2, 0.33 mM MgSO4) to achieve a final DMSO concentration of 1% w/v. Twenty-four hpf zebrafish embryos were investigated under a light microscope, and […] fertilized embryos (n = 60) were selected and transferred into 48-well plates (5 embryos per well). Larvae were incubated in 1 mL of the zebrafish medium for up to 3 days after fertilization.
On the fourth day postfertilization (96 hpf), the larvae (10 individuals per group) were incubated in solutions of coumarin or its three derivatives (1a, 2b, 4a) at selected concentrations (5, 10, 25, 50, 75, 100, 150 μM), along with control solutions: negative control (zebrafish medium) and solvent control (1% DMSO in zebrafish medium). The maximum tolerated concentration (MTC) was calculated to assess the toxicity of the compounds and extracts. […] Larvae were individually inspected under a microscope for signs of acute locomotor dysfunction, including a weak reaction to light tail stimulation with a fine needle, disrupted posture, body deformities, protruding eyes, slowed or absent heartbeat, and mortality.

SW620 [9] = test: Annexin V-FITC/PI flow cytometry; format: cell-based, human; settings: SW620, compound at IC50, 72 h, mean
Method: as §3

IL-6 in SW620 cells = test: Interleukin-6 ELISA; format: cell-based, human; settings: SW620, compound at IC50, 72 h
Method: as §4

SW620 [10] = test: Trypan blue assay; format: cell-based, human; settings: SW620, compound at IC50, 72 h
Method: as §5

[11] = Table S7, >100 entered as 100, read-out: mean anticancer IC50
[12] = read-out: average IC50 against tested cancer cell lines

Structure (SMILES)	IC50 (HaCaT [1])	Early apoptosis [%] (HaCaT [3])	Late apoptosis [%] (HaCaT [3])	Necrosis [%] (HaCaT [3])	IC50 (MDA-MB-231)	SI MDA-MB-231 (MDA-MB-231)	SI SW480 (SW480)	IC50 (SW480)	IC50 (PC3 [4])	SI PC3 (PC3 [4])	SI SW620 (SW620 [5])	IC50 (SW620 [5])	IL-6 concentration (IL-6 in HaCaT cells)	cell number (HaCaT [7])	reduction of number of cells (HaCaT [7])	viability at 72 h (Trypan blue assay)	IC50 [8, 11]	IC50 [8, 12]	also measured
COc1cccc2c1OC(=O)C(C(=O)O[C@@H]1C[C@H](C)CC[C@H]1C(C)C)C2P(=O)(c1ccccc1)c1ccccc1 (mixture of isomers) [Compound 4b, (1R,2S,5R)-2-Isopropyl-5-methylcyclohexyl-4-(diphenylphosphoryl)-8-methoxy-2-oxochromane-3-carboxylate]	27.6 ± 3.12 µM	2.55%	0.85%	0.45%	47.6 ± 4.73 µM	0.58	0.73	37.4 ± 2.45 µM	9.9 ± 1.42 µM	2.78	1.39	19.8 ± 0.63 µM	10.5 ± 0.94 pg/mL	5.23 x106	16.6%	98.3%	28.7 µM	28.7 µM	Early apoptosis [%] (PC3 [2]): 10.50%; Late apoptosis [%] (PC3 [2]): 3.90%; Necrosis [%] (PC3 [2]): 0.20%; reduction of IL-6 concentration (IL-6 in HaCaT cells; vs control): did not alter IL-6 secretion; IL-6 concentration (IL-6 in PC3 cells; ELISA): 0.9 ± 0.03 pg/mL; reduction of IL-6 level (IL-6 in PC3 cells; vs control): 79.2%; cell number (PC3 [6]; mean): 4.26 x106; viability (%) (PC3 [6]; mean): 94%; reduction of number of live cells (PC3 [6]; vs control): 35.3%
CC(C)[C@@H]1CC[C@@H](C)C[C@H]1OC(=O)c1cc2ccccc2oc1=O [Compound 1a, (1R,2S,5R)-2-Isopropyl-5-methylcyclohexyl 2-oxo-2H-chromene-3-carboxylate]	82.7 ± 3.5 µM				76.5 ± 8.85 µM	1.08	1.17	70.5 ± 2.31 µM	57.8 ± 3.87 µM	1.43	1.44	57.3 ± 5.36 µM					65.5 µM	65.5 µM	maximum tolerated concentration (MTC) (Danio rerio larvae): 0 µM
CCOP(=O)(OCC)c1cc2cccc(OC)c2oc1=O [Compound 2b, Diethyl (8-Methoxy-2-oxo-2H-chromen-3-yl)phosphonate]	> 100 µM	2.60%	1.30%	0.30%	> 100 µM	1	1	> 100 µM	> 100 µM	1	9.8	10.2 ± 1.63 µM	11.3 ± 0.59 pg/mL	5.66 x106	below 10%	94.7%		> 77.5 µM	IC50 HaCaT (HaCaT [1]): did not show any cytotoxic effects; Necrosis [%] (SW620 [9]): 0.60%; IL-6 concentration (IL-6 in SW620 cells; ELISA): 2.1 ± 0.22 pg/mL; reduction of IL-6 level (IL-6 in SW620 cells; vs control): 33.5%; increase in interleukin level (IL-6 in HaCaT cells; vs control): 10.7%; cell number (SW620 [10]; mean): 2.26 x106; viability (%) (SW620 [10]; mean): 98.66%; reduction of number of live cells (SW620 [10]; vs control): 36.4%
